These results are taken from patent publication US12721801B2, “Compositions and methods relating to stimulation of hyaluronic acid” (Alastin Skincare, Inc., priority 2020, dated 2026).

Series [1] is described as follows: Preparation of compound stocks in DMSO (dissolution observed). It counts as physicochemical. The procedure:
(§1) Compounds. Stocks of compounds 1 through 8 on the list below were prepared in PBS at 100× the concentration indicated in red type. […] This stock was 100× of final concentration. A 20 mg/ml stock of compound 10 (CBD) was prepared in DMSO. […] This stock was 200× of final concentration.

For another series, the system named is human fibroblast cells. The experiment in a line: HA production assessment, SDS-PAGE of fibroblast supernatants. It counts as cell-based. The following applies: Experiment 2, primary adult human dermal fibroblasts, 72 hours, octapeptide 100 ug/mL, SymDecanox 250 ug/mL, others 500 ug/mL, FIG. 6. The procedure:
In a second experiment, HA production was also assessed with the test compounds below. Briefly, primary adult human dermal fibroblast cells were cultured until near confluent in 6 well plates. The cells were treated with the compounds and concentrations indicated to the right. After 72 hours, 100 μL of media were collected from each treatment condition and was concentrated in a SpeedVac concentrator to a final volume of ~10 uL.
All 10 μL of the supernatants were loaded onto an acrylamide gel (NuPAGE 4-12% Bis-Tris Protein Gel) and run at 200V for 3 hours. The gel was stained to detect the presence of HA. Data is seen in FIG. 6. […] Lane 11 is the negative control, representing the untreated cells. This band represents the cells constitutive level of HA. Treating the cells with all the indicated compounds (lanes 1-10) produced an increased level of high molecular weight HA. […]

In series [2] the test system is Hyaluronic Acid Synthase 2 (HAS2). The series is described as follows: Gene expression study (RNA sequencing), HAS2 expression in keratinocytes. The format is cell-based. The settings on record: human keratinocytes, 24 hours of compound exposure, FIG. 2. The procedure:
(§2) Cell Lines. Human adult dermal fibroblast and keratinocyte cell lines were treated with 11 different compound treatments (plus DMSO control as treatment #12). Primary fibroblasts, keratinocytes sourced from ZenBio. Primary cells were plated in cell specific media at 5K or 10K cells per cm^2 as per ZenBio instructions. Cells were plated in 48 well plates (Greiner) in triplicate, one cell line per plate. Media volume was 500 ul per well. Outer two columns of wells were not used. All rows were used. Cells were cultured for 2 days in 37° C. 5% CO2 incubator. After 48 hours all the cell cultures were uniform and appeared healthy, no appreciable number of floating dead cells or evidence of vacuolization of cells that might indicate apoptotic or dying cells.
as §1
(§3) Dosing. After 48 hours of attachment culture, fibroblasts and keratinocytes were treated with the test compounds. […]
(§4) RNA Lysate preparation. […] All samples were shipped frozen on dry ice to MedGenome for RNA extraction, library construction and sequencing to 25M paired end 100 bp reads per sample. […]

The test system of another series is Hyaluronidase 2 (HYAL2). The series is described as follows: Gene expression study (RNA sequencing), HYAL2 expression in keratinocytes. The format is cell-based. The settings on record: human keratinocytes, 24 hours of compound exposure, FIG. 3. The procedure: as §2, §1, §3, §4

On to `C=C(C)[C@@H]1CCC(C)=C[C@H]1c1c(O)cc(CCCCC)cc1O` [CBD], for which, in series [1] (20 mg/ml stock in DMSO), the “Dissolution of stock in DMSO” value is on record as “slightly cloudy”.
As for `CCCCCCCC(=O)CCc1ccc(O)c(OC)c1` [SymDecanox™, hydroxymethoxyphenyl decanone], the “Level of high molecular weight HA (band on gel)” value (from here on “Level”) in the series on human fibroblast cells is “secrete high molecular weight HA”.
As for “Hexapeptide-11: hexapeptide test agent; FVAPFP (SEQ ID NO: 19) is printed as a hexapeptide sequence, not tied explicitly”, in series [2], the “HAS2 expression in keratinocytes” value is listed as “excellent upregulation”. The “Hyaluronidase 2 (HYAL2) expression in keratinocytes” value in the series with Hyaluronidase 2 (HYAL2) is “potent downregulation”.
With phosphatidylserine, the “Level” value in the series on human fibroblast cells was “secrete high molecular weight HA”. The “Dissolution of stock in DMSO” value in series [1] (50 mg/ml stock in DMSO, extensive vortexing and warming) is “did not fully go into solution”.
Take “tetradecyl-diaminobutyroylvalyldiaminobutyric urea trifluoroacetate [SynHycan]”: the “Level” value with human fibroblast cells is “secrete high molecular weight HA”.
